One assay concerns the target T1, SPOP28–359 (Homo sapiens, UniProt O43791).
T1 construct: A plasmid encoding His–SUMO–SPOP human residues 28 to 359; His-SUMO (N, cleaved yes); made in house; host or cells: E. coli Rosetta BL-21(DE3)
Put plainly: Competition fluorescence anisotropy, displacement of f-Puc from oligomeric SPOP28–359. The class given is binding. To be noted: competition FA; Fig. 5B and Table S4. An excerpt:
An Escherichia coli codon-optimized DNA sequence encoding amino acids 205 to 283 of the human Pdx1 sequence (Pdx1-C) in the multiple cloning site of pET49b(+) was purchased from GeneArt (Thermo Fisher). The pET49b(+) backbone encodes for N-terminal glutathione S-transferase and 6X His tags, followed by a 3C protease recognition motif. In all experiments described herein, a mutant containing an exogenous tryptophan at the N terminus of the human Pdx1-C sequence was used for the purposes of quantitation. Mutations in Pdx1-C were generated by Q5 site-directed mutagenesis (New England Biolabs) with primers designed on NEBbasechanger.com according to the manufacturer protocol. […]
All FA experiments were conducted in 50 mM sodium phosphate, pH 6.5, 50 mM sodium chloride, 5 mM DTT, 1% BSA, and 0.01% Triton X-100. In all experiments, the source of fluorescence signal was f-Puc purchased from GenScript, at a final concentration of 40 nM. […] The fluorescence polarization of each well was measured (from which FA was calculated) using either a TECAN Infinite M1000 Pro or BioTek Synergy 4 fluorometer. […] FA data points were fit to a complete competitive binding model ([23]) to determine dissociation constants using in-house Python scripts (see Quantification and statistical analysis). […]
In general terms: Fluorescence polarisation rises when a labelled molecule tumbles more slowly, as on binding a larger partner.

The subject of assay [1] is SPOP-mediated ubiquitination in T-REx-293 cells. Put plainly: SPOP-mediated ubiquitination of Pdx1 variants (Ni-NTA pulldown, immunoblot). Format: cell-based. To be noted: SPOP–myc and GFP–Pdx1 coexpressed 24 h, then 20 μM MG132 or DMSO for 4 h, immunoblot (Fig. 6C). How it is done: We next sought to determine whether SPOP-driven ubiquitination of Pdx1 could occur outside of previously implicated droplets. Given the SPOP relocalization phenotype that we observe in cells that express SPOP and Pdx1, we hypothesized that the ubiquitination activity was occurring in the diffuse nucleoplasm and that optimal activity requires both SB sites. To test this hypothesis, we performed in cell ubiquitination assays with GFP–Pdx1 variants. SPOP–myc and GFP–Pdx1 were coexpressed for 24 h in T-REx-293 cells, followed by a 4-h treatment with 20 μM MG132 or dimethyl sulfoxide. Proteins modified with His-ubiquitin were enriched by pulldown on nickel-nitrilotriacetic acid (Ni-NTA) resin.
A plasmid encoding full-length human Pdx1 (amino acids 1-283) in pcDNA3.1 with a C-terminal GFP tag was purchased from GenScript. Full-length mouse SPOP (identical to the human sequence) with a V5 epitope tag in pcDNA3 was generated previously ([21]). The coding sequence for full-length mouse SPOP was inserted into pcDNA4/TO/myc (Invitrogen) for the T-REx system. pcDNA3-myc-CUL3 (cat no. 19893) and pcDNA–HA2–ROC1 (Rbx1) (cat no. 19897) were obtained from Addgene. pcDNA3 containing His-ubiquitin was a gift from Wenyi Wei.
Ubiquitination and Western blots
(§1) T-REx-293 cells (Invitrogen) were seeded at a density of 0.8 × 10^6 per well in 6-well plates (tissue culture–treated plates (cat. no 3516, Corning)). After 24 h, cells were transfected with plasmids encoding Pdx1–GFP, SPOP–myc, His–ubiquitin, HA–Rbx1, and myc–CUL3 (as indicated) using the Qiagen Effectene transfection reagent. 24 h after transfection, the cells were treated with either dimethyl sulfoxide or 20 μM MG132 for 4 h before being harvested. Cells were lysed in buffer A (6 M guanidine HCl, 100 mM sodium phosphate, pH 8.0, and 10 mM imidazole). The lysates were sonicated, cleared, and incubated with Ni-NTA Agarose (Qiagen) for 3 h at RT, followed by 16 h at 4 °C. The beads were washed twice with buffer A and twice with a buffer composed of 1:3 buffer A:buffer T1 (buffer T1: 25 mM Tris HCl, pH 8.0, and 20 mM imidazole). The beads were finally transferred to buffer T1 and then boiled in the SDS-PAGE loading buffer containing 300 mM imidazole. Pdx1 stability assays were performed as described above, except that the cells were not treated with MG132. Cells expressing Pdx1–GFP or a variant were harvested 28 h after transfection, resuspended in 2x SDS-loading dye, and boiled for 5 min before SDS-PAGE analysis.
(§2) All proteins were resolved by SDS-PAGE. Separated proteins were analyzed by immunoblotting using either the ECL or the ECL Select Western blotting detection reagents (Amersham). The antibodies used were mouse anti-Pdx1 used at 1:500 for pulldown or 1:2000 for inputs (clone 26771, MAB2419, R&D Systems), mouse anti-myc (1:250, clone 9E10, Santa Cruz Biotechnology), and rabbit anti-GAPDH (1:8000, clone EPR1689, Abcam). horseradish peroxidase-conjugated secondary antibodies were sourced from Jackson ImmunoResearch Laboratories and used at 1:20,000 dilution (goat anti-rabbit IgG, 111-035-003 and goat anti-mouse, 115-035-003).
Background: Immunoblotting shows a protein as a band on a membrane.

Assay [2] has as its system SPOP-dependent turnover in T-REx-293 cells. Put plainly: SPOP-dependent Pdx1 stability (Western blot). The class given is cell-based. To be noted: no MG132, harvested 28 h after transfection, Western blot (Fig. S3D). How it is done:
In a similar experiment, the cells were not treated with a proteasome inhibitor to observe the SPOP-dependent stability of each Pdx1 variant.
as §1, §2

T1 sequence (O43791 28-359): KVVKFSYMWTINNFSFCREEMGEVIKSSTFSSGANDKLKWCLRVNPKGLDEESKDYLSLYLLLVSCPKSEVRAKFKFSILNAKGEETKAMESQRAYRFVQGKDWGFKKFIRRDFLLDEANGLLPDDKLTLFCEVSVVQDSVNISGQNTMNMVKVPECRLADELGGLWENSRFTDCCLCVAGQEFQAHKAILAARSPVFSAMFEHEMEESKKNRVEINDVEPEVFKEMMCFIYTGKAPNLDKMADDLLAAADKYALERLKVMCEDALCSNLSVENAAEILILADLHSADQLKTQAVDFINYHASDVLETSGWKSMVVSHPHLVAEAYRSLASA

As for “Pdx1: full-length human Pdx1 (amino acids 1-283) with a C-terminal GFP tag”, the “enhancement in binding affinity to oligomeric SPOP28–359 compared with SPOP–MATH” value in the assay with SPOP28–359 was roughly 10 fold. For the same substance, the “ubiquitination of Pdx1 variant” value in assay [1] (listed as GFP–Pdx1–WT) is “is ubiquitinated in cells”; in assay [1] (listed as Pdx1–WT) it was “robust polyubiquitination”. The results for the “SPOP-dependent Pdx1 stability” value in assay [2] (listed as Pdx1-GFP-WT) and in assay [2] (listed as Pdx1–WT) were “almost entirely degraded” and “readily degraded”, respectively.
